Laboratory results taken from US6506580B1, “Splice variants for human 5-HT4 serotonin receptor and their applications, in particular for screening” (Institut National de la Sante et de la Recherche Medicale …, priority 1997, dated 2003).

Columns and labels:
Format in all cases: cell-based
receptor 5-HT4(a) = target: T1, receptor 5-HT4(a) (Homo sapiens, UniProt Q13639); test: cAMP formation in transiently transfected COS-7 cells; conditions: COS-7, 1 μM agonist, 15 minutes
T1 construct: The entire coding region of the cDNAs of 5-HT4(a), 5-HT4(b), 5-HT4(c) and 5-T4(d) was subcloned; expressed in transfected cells; host or cells: COS-7 cells, transient, pRC/CMV vector
T1 sequence (Q13639 1-387 isoform Q13639-2): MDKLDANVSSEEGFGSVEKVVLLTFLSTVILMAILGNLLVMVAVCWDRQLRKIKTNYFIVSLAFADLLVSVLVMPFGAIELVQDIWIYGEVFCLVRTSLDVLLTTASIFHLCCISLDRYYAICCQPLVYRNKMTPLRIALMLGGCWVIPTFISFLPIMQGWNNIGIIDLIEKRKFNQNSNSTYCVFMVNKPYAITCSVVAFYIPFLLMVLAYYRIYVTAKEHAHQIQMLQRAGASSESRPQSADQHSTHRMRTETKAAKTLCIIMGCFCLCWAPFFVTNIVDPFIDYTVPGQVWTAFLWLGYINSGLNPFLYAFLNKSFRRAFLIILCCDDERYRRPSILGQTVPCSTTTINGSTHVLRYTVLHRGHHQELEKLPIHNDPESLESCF
Description: (§1) The entire coding region of the cDNAs of 5-HT4(a), 5-HT4(b), 5-HT4(c) and 5-T4(d) was subcloned into a mammalian expression vector pRC/CMV (Invitrogen, Carlsbad, Calif.). The transfections were carried out using polyethyleneimine (PEI) as described in Boussif et al. (1995). The cells were transfected using a mixture of DNA and of PEI in a ratio of 20 μmol of PEI/mg of DNA in 0.9% NaCl. For the radioligand binding assays, the COS-7 cells were seeded into culture flasks of 1.5×10^4 mm^2 one day before the transfection, at a density of 1×10^7 cells/flask, incubated for six hours with plasmid DNA (150 μg/flask) and collected 48 hours after transfection. For the measurement of cAMP formation, the COS-7 cells were seeded onto twelve-well plates one day before transfection, at a density of 5×10^5 cells/well, incubated for six hours with plasmid DNA (4 to 8 μg/well according to the experiments) and assayed 24 hours after the transfection. The cells transfected with the receptor 5-HT4 cDNA constructs were compared with the “blank”-transfected cells, which were exposed to the unmodified pRC/CMV plasmid.
(§2) To measure intracellular cAMP accumulation, the transiently transfected COS-7 cells were incubated, 24 hours after transfection, in Dulbecco's modified Eagle medium (DMEM) containing 5 mM theophylline, 10 mM HEPES and 10 μM pargyline for 15 minutes at 37° C., in the presence of 5% CO2. […] The reaction was stopped by aspiration of the medium and addition of 500 μl of ice-cold ethanol. After one hour at room temperature, the cells were scraped, and everything was collected and freeze-dried. The pellet was resuspended in 350 μl of PBS and centrifuged for 5 min at 300 g. The cAMP was quantified in the supernatant using a radioimmunological assay (E.R.I.A. assay kit from Pasteur Diagnostics 79830). Student's t tests were carried out using the program Quick TEst.

receptor 5-HT4(b) = target: T2, receptor 5-HT4(b) (Homo sapiens, UniProt Q13639); test: as above; conditions: COS-7, 1 μM agonist, 15 minutes
T2 construct: The entire coding region of the cDNAs of 5-HT4(a), 5-HT4(b), 5-HT4(c) and 5-T4(d) was subcloned; expressed in transfected cells; host or cells: COS-7 cells, transient, pRC/CMV vector; cDNA amplified from human brain and ileum RNA
T2 sequence (Q13639 whole entry): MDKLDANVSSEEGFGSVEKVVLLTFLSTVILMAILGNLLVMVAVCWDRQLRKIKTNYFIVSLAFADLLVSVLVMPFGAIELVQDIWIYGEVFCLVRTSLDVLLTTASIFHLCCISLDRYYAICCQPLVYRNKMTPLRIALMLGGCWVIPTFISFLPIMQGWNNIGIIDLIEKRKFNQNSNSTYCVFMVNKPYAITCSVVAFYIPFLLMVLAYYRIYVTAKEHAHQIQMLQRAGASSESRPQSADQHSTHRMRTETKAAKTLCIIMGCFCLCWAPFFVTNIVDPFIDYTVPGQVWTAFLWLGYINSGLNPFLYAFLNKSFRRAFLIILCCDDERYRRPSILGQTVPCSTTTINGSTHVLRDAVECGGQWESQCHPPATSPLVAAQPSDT
Description: as §1, §2

[1] = tested on: “blank”-transfected COS-7 cells; test: cAMP formation in control COS-7 cells; conditions: 1 μM
Description: as §1, §2

h5-HT4(c) = target: T3, h5-HT4(c) (Homo sapiens, UniProt Q13639); test: cAMP formation in stably transfected CHO cells; conditions: 1 μM, 15 minutes
T3 construct: The entire coding region of the 5-HT4(c) and 5-HT4(d) cDNAs was subcloned; expressed in transfected cells
T3 sequence (Q13639 1-380 isoform Q13639-4): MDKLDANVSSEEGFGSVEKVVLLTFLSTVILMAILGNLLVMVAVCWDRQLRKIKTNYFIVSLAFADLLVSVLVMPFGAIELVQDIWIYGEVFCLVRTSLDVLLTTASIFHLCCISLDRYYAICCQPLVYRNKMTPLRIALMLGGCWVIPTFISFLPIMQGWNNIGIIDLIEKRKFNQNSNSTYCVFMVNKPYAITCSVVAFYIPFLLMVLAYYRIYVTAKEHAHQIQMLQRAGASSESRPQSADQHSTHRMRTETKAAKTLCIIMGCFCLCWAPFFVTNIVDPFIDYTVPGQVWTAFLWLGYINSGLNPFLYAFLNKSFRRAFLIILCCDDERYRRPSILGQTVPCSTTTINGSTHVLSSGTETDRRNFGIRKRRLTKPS
Description: (§3) The entire coding region of the 5-HT4(c) and 5-HT4(d) cDNAs was subcloned into a mammalian expression vector pRC/CMV (Invitrogen, Carlsbad, Calif.). The CHO cells are stably transfected by electroporation (250 V, 960 μF) with the plasmid PRc/CMV, containing the clone h5-HT4(c) or h5-HT4(d), cleaved with the restriction enzyme Kpn1 (10 μg of plasmid for 10^7 cells). The cells are cultured in HAM-F12 medium supplemented with 10% of heat-inactivated foetal calf serum. […] Twelve days later, the clones are individualized and cultured in 12-well plates. […] For the radioligand binding assays or for the measurement of cAMP formation, the cells transfected with the receptor 5-HT4 cDNA constructs were compared with the “blank”-transfected cells, which were exposed to the unmodified pRC/CMV plasmid.
(§4) To measure intracellular cAMP accumulation, the stably transfected CHO cells were incubated in the HAM-F12 medium containing 5 mM theophylline, 10 mM HEPES and 10 μM pargyline, for 15 minutes at 37° C. in the presence of 5% CO2. […] The reaction was stopped by aspiration of the medium and addition of 500 μl of ice-cold ethanol. After one hour at room temperature, the cells were scraped, and everything was collected and freeze-dried. […] The cAMP was quantified in the supernatant using a radio-immunological assay (E.R.I.A. assay kit from Immunotech, Marseilles). […]

h5-HT4(d) = target: T4, h5-HT4(d) (Homo sapiens, UniProt Q13639); test: cAMP formation in stably transfected CHO cells; conditions: 1 μM, 15 minutes
T4 construct: The entire coding region of the 5-HT4(c) and 5-HT4(d) cDNAs was subcloned; expressed in transfected cells
T4 sequence (Q13639 1-360 isoform Q13639-3): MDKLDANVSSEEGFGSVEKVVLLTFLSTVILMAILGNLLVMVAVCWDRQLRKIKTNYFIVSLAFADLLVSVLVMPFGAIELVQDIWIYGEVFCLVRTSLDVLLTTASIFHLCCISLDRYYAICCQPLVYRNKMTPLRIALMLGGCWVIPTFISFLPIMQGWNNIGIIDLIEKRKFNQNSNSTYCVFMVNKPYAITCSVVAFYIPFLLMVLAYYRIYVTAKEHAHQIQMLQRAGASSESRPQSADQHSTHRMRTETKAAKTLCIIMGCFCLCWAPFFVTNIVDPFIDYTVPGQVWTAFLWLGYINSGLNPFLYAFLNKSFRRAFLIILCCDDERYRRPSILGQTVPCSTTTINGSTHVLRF
Description: as §3, §4

[2] = tested on: “blank”-transfected CHO cells; test: cAMP formation in control CHO cells; conditions: 1 μM
Description: The entire coding region of the 5-HT4(c) and 5-HT4(d) cDNAs was subcloned into a mammalian expression vector pRC/CMV (Invitrogen, Carlsbad, Calif.). The CHO cells are stably transfected by electroporation (250 V, 960 μF) with the plasmid PRc/CMV, containing the clone h5-HT4(c) or h5-HT4(d), cleaved with the restriction enzyme Kpn1 (10 μg of plasmid for 10^7 cells). The cells are cultured in HAM-F12 medium supplemented with 10% of heat-inactivated foetal calf serum. […] Twelve days later, the clones are individualized and cultured in 12-well plates. Clone selection is carried out by studying the stimulation of the cAMP formed in the presence of 1 μM serotonin. For the radioligand binding assays or for the measurement of cAMP formation, the cells transfected with the receptor 5-HT4 cDNA constructs were compared with the “blank”-transfected cells, which were exposed to the unmodified pRC/CMV plasmid.
To measure intracellular cAMP accumulation, the stably transfected CHO cells were incubated in the HAM-F12 medium containing 5 mM theophylline, 10 mM HEPES and 10 μM pargyline, for 15 minutes at 37° C. in the presence of 5% CO2. […] The reaction was stopped by aspiration of the medium and addition of 500 μl of ice-cold ethanol. […] The cAMP was quantified in the supernatant using a radio-immunological assay (E.R.I.A. assay kit from Immunotech, Marseilles). […]

receptor 5-HT4(d) = receptor 5-HT4(d) (Homo sapiens, UniProt Q13639); test: cAMP formation in transiently transfected COS-7 cells; set-up: The entire coding region of the cDNAs of 5-HT4(a), 5-HT4(b), 5-HT4(c) and 5-T4(d) was subcloned; expressed in transfected cells; host or cells: COS-7 cells, transient, pRC/CMV vector; cDNA amplified from human brain and ileum RNA; conditions: COS-7, 1 μM agonist, 15 minutes
Sequence of receptor 5-HT4(d) (Q13639 1-360 isoform Q13639-3): as above
Description: The entire coding region of the cDNAs of 5-HT4(a), 5-HT4(b), 5-HT4(c) and 5-T4(d) was subcloned into a mammalian expression vector pRC/CMV (Invitrogen, Carlsbad, Calif.). The transfections were carried out using polyethyleneimine (PEI) as described in Boussif et al. (1995). The cells were transfected using a mixture of DNA and of PEI in a ratio of 20 μmol of PEI/mg of DNA in 0.9% NaCl. For the radioligand binding assays, the COS-7 cells were seeded into culture flasks of 1.5×10^4 mm^2 one day before the transfection, at a density of 1×10^7 cells/flask, incubated for six hours with plasmid DNA (150 μg/flask) and collected 48 hours after transfection. For the measurement of cAMP formation, the COS-7 cells were seeded onto twelve-well plates one day before transfection, at a density of 5×10^5 cells/well, incubated for six hours with plasmid DNA (4 to 8 μg/well according to the experiments) and assayed 24 hours after the transfection. […]
To measure intracellular cAMP accumulation, the transiently transfected COS-7 cells were incubated, 24 hours after transfection, in Dulbecco's modified Eagle medium (DMEM) containing 5 mM theophylline, 10 mM HEPES and 10 μM pargyline for 15 minutes at 37° C., in the presence of 5% CO2. […] The cAMP was quantified in the supernatant using a radioimmunological assay (E.R.I.A. assay kit from Pasteur Diagnostics 79830). […]

receptor 5-HT4(c) = receptor 5-HT4(c) (Homo sapiens, UniProt Q13639); test: as above; set-up: The entire coding region of the cDNAs of 5-HT4(a), 5-HT4(b), 5-HT4(c) and 5-T4(d) was subcloned; expressed in transfected cells; host or cells: COS-7 cells, transient, pRC/CMV vector; cDNA amplified from human brain and ileum RNA; conditions: for increase in the basal cAMP level: 1 μM
Sequence of receptor 5-HT4(c) (Q13639 1-380 isoform Q13639-4): as the sequence (Q13639 1-380 isoform Q13639-4) above
Description: as §1, §2
ML10375 is capable of reducing the cAMP levels in the cells expressing the 5-HT4(c) and 5-HT4(d) isoforms in the absence of any stimulation of the receptor by 5-HT4 agonists. To test the hypothesis that ML10375 may constitute a reverse agonist for the human receptor 5-HT4, the 5-HT4(c) isoform was overexpressed in COS-7 cells in order to increase the frequency of the spontaneously active state of the receptor. The COS-7 cells were transfected with 4 to 8 μg of plasmid DNA per well in order to obtain an increase in the expression levels of the receptor 5-HT4(c). […] (FIG. 6B).

NCCc1c[nH]c2ccc(O)cc12 [5-HT, 5-hydroxytryptamine]
increase in cAMP concentration (receptor 5-HT4(a)): 82% | increase in cAMP concentration (receptor 5-HT4(b)): 85% | effect on basal adenylate cyclase activity / basal cAMP levels [1]: no effect | increase in cAMP concentration (h5-HT4(c)): 91% | increase in cAMP concentration (h5-HT4(d)): 118% | effect on cAMP [2]: no effect | increase in cAMP concentration (receptor 5-HT4(d)): 77% | increase in cAMP concentration (receptor 5-HT4(c); COS-7, 1 μM agonist, 15 minutes): 64% | increase in the basal cAMP level (receptor 5-HT4(c); COS-7 transfected with 4 μg of plasmid DNA): 64% | increase in the basal cAMP level (receptor 5-HT4(c); COS-7 transfected with 8 μg of plasmid DNA): did not significantly increase
